Assay results taken from ChEMBL document CHEMBL1141870, “Discovery of potent chromen-4-one inhibitors of the DNA-dependent protein kinase (DNA-PK) using a small-molecule library approach” (J Med Chem, 2005).

Target: DNA-dependent protein kinase catalytic subunit (Homo sapiens, UniProt P78527)
Assay: Inhibition against DNA-dependent protein kinase receptor at 0.5uM

Sequence of DNA-dependent protein kinase catalytic subunit (P78527 whole entry): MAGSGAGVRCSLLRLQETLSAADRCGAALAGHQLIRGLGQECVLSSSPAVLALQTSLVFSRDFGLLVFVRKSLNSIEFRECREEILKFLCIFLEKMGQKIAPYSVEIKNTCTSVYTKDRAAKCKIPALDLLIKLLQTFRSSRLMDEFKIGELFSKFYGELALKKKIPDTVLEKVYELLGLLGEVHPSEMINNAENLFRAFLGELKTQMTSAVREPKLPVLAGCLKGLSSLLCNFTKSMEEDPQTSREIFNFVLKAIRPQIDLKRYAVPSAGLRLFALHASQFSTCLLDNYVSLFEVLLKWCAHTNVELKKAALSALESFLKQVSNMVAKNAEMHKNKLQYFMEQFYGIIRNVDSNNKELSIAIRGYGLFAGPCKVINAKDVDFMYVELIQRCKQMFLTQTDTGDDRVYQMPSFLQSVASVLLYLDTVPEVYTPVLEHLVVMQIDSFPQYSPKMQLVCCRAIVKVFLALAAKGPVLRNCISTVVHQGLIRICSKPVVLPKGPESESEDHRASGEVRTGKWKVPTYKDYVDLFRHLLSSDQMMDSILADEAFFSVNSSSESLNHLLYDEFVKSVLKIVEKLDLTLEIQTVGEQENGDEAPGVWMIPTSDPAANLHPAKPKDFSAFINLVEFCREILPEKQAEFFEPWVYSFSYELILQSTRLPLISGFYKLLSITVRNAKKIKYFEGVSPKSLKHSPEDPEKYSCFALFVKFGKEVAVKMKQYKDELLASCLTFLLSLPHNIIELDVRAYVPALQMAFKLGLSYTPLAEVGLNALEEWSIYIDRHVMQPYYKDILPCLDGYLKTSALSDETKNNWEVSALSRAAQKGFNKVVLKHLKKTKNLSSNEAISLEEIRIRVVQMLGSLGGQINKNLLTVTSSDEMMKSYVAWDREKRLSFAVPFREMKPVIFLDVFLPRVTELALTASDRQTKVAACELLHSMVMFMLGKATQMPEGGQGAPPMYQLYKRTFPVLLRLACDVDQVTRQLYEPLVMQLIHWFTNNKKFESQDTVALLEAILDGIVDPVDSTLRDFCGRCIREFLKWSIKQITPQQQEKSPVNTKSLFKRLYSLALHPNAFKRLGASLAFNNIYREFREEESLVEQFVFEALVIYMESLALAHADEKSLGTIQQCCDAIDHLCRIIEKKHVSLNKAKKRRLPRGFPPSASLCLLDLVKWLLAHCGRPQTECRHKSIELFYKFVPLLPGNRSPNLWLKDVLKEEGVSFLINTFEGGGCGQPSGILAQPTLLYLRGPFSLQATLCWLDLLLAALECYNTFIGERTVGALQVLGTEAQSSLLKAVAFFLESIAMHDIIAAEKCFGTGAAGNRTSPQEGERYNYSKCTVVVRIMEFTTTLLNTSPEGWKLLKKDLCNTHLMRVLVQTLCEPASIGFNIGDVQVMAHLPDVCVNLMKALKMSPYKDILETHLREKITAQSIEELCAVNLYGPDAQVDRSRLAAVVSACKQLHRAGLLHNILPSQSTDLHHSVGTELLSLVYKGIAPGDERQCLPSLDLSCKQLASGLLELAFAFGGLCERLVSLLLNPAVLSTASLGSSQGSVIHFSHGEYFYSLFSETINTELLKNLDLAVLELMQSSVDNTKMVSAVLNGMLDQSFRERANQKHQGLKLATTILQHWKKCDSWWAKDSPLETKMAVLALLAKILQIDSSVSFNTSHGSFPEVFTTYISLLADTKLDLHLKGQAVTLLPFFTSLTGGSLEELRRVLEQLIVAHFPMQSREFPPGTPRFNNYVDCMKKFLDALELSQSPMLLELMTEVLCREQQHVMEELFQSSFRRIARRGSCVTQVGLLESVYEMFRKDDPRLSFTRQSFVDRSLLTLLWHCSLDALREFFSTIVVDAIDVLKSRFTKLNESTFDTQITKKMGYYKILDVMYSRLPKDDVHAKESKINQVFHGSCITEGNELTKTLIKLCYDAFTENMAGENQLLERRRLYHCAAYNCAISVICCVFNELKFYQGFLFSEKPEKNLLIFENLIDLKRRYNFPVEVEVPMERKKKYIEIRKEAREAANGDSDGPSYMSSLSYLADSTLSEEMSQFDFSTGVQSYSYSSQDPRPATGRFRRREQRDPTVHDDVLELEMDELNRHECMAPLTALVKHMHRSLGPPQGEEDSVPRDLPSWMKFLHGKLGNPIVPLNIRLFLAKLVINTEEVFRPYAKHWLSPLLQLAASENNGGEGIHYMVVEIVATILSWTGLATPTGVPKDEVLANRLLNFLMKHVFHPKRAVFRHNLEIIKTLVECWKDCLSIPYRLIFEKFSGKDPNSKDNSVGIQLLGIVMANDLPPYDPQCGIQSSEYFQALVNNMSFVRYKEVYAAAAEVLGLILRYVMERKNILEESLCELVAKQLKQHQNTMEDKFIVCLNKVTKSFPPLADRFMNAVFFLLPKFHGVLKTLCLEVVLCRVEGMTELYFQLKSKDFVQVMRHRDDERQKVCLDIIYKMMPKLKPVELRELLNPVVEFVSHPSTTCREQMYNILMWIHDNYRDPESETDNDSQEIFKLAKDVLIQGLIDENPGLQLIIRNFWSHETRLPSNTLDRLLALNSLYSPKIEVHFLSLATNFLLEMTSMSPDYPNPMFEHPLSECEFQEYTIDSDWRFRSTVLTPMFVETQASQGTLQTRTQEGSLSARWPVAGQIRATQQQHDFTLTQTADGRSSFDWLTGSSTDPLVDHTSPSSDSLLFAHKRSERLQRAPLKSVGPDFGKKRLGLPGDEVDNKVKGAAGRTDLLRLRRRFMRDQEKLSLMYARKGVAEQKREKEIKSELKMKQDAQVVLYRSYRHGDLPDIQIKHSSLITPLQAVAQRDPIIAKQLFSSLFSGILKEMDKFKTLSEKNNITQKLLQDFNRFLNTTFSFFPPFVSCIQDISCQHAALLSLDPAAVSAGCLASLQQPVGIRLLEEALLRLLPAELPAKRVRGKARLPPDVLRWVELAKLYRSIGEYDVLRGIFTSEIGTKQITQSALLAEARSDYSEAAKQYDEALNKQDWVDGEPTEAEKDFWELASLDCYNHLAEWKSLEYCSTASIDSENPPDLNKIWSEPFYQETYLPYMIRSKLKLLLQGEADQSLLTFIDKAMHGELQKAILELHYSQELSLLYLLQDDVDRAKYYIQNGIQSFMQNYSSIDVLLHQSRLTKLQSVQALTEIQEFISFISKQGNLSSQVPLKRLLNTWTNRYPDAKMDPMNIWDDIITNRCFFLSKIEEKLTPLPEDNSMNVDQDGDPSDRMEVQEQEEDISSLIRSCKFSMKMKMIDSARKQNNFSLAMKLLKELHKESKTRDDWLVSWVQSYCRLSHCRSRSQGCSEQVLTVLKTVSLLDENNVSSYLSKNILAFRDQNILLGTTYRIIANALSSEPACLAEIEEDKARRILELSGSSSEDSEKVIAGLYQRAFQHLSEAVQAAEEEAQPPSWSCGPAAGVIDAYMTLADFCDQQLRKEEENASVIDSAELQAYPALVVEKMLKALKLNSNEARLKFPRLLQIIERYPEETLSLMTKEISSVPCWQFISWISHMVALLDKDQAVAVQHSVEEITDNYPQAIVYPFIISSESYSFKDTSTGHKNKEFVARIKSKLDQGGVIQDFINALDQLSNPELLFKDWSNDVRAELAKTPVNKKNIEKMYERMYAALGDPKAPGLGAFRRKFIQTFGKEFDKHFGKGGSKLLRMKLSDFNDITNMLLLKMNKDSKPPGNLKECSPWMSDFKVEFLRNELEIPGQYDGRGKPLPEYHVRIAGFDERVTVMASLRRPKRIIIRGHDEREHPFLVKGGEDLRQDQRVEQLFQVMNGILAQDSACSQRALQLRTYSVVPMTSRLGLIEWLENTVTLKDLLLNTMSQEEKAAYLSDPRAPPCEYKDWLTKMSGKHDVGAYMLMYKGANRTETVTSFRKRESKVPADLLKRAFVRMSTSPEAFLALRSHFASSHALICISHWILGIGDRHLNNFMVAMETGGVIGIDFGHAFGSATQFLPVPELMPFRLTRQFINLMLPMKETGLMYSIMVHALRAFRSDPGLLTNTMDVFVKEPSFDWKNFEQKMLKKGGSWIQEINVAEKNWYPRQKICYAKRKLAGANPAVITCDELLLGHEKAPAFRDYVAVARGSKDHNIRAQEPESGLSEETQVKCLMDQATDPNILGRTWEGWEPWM

Compound | inhibition [%]
CC(=O)Nc1cccc(-c2ccc3c(=O)cc(N4CCOCC4)oc3c2)c1 | 28
O=c1cc(N2CCOCC2)oc2cc(-c3cccc(OCc4ccccc4)c3)ccc12 | 29
CC(=O)Nc1ccccc1-c1ccc2oc(N3CCOCC3)cc(=O)c2c1 | 60
O=c1cc(N2CCOCC2)oc2ccc(-c3ccc(OC(F)(F)F)cc3)cc12 | 19
CCOC(=O)c1cccc(-c2ccc3c(=O)cc(N4CCOCC4)oc3c2)c1 | 26
O=C1c2ccccc2C(=O)N1Cc1ccc(-c2ccc3oc(N4CCOCC4)cc(=O)c3c2)cc1 | 49
Cc1ccc(-c2ccc3oc(N4CCOCC4)cc(=O)c3c2)c2ccccc12 | 25
O=c1cc(N2CCOCC2)oc2ccc(-c3ccco3)cc12 | 14
O=c1cc(N2CCOCC2)oc2ccc(-c3cccc4c3Sc3ccccc3S4)cc12 | 55
COC(=O)c1ccccc1-c1ccc2c(=O)cc(N3CCOCC3)oc2c1 | 30
O=c1cc(N2CCOCC2)oc2cc(-c3ccccc3-c3ccccc3)ccc12 | 25
CC(=O)c1ccccc1-c1ccc2c(=O)cc(N3CCOCC3)oc2c1 | 26
CC(=O)c1cccc(-c2ccc3c(=O)cc(N4CCOCC4)oc3c2)c1 | 6
O=c1cc(N2CCOCC2)oc2ccc(-c3csc4ccccc34)cc12 | 50
N#Cc1ccc(-c2ccc3c(=O)cc(N4CCOCC4)oc3c2)cc1 | 29
O=c1cc(N2CCOCC2)oc2ccc(-c3cccc4c3sc3ccccc34)cc12 | 14

The next lines start with the values.

inhibition [%] | Compound
42 | O=c1cc(N2CCOCC2)oc2ccc(-c3ccsc3)cc12
13 | O=c1cc(N2CCOCC2)oc2ccc(-c3ccc4ncccc4c3)cc12
58 | O=c1cc(N2CCOCC2)oc2ccc(-c3ccc(CO)cc3)cc12
13 | CCOC(=O)c1cccc(-c2ccc3oc(N4CCOCC4)cc(=O)c3c2)c1
52 | O=c1cc(N2CCOCC2)oc2ccc(-c3cccc4ccccc34)cc12
46 | CC(=O)c1cccc(-c2ccc3oc(N4CCOCC4)cc(=O)c3c2)c1
57 | COc1ccc(-c2ccc3oc(N4CCOCC4)cc(=O)c3c2)cc1
56 | O=c1cc(N2CCOCC2)oc2ccc(-c3cccc(O)c3)cc12
17 | O=c1cc(N2CCOCC2)oc2ccc(-c3ccc4[nH]ccc4c3)cc12
35 | O=c1cc(N2CCOCC2)oc2ccc(-c3cccc(OCc4ccccc4)c3)cc12
